These results are taken from US9266813B2, “Stilbenoid compound as inhibitor for squamous carcinoma and hepatoma and uses thereof” (AnnCare Bio-Tech Center Inc., priority 2013, dated 2016).

Data set [1] can be described thus: Water solubility assay. The class given is physicochemical. Conditions: read-out: Water solubility, Content. An excerpt: The water solubility of the compounds of the present invention can be determined by methods known in the art and the result is shown in Table 3.
In data set [2] the test system is CAR cells. Nature of the data set: MTT assay, antiproliferation on cisplatin-resistant head and neck squamous carcinoma (CAR) cells. The class given is cell-based, human. Conditions: Homo sapiens, CAR cells, MTT. How it is done:
The human head and neck carcinoma cell line CAL27 was obtained from American Tissue Culture Collection (ATCC). The cisplatin-resistant cell line CAR (CAL27-cisplatin resistance) was established by clonal selection of CAL27 using 10 cycles of 1 passage treatment with 10-80 μM of cisplatin (Sigma-Aldrich Corp. (St. Louis, Mo., USA) followed by a recovery period of another passage. CAR cells were cultivated in Dulbecco's modified Eagle's medium (DMEM) supplemented with 10% FBS, 100 μg/mL streptomycin, 100 U/mL penicillin G, 2 mM L-glutamine (Gibco by Life Technologies (Carlsbad, Calif., USA)) and 80 μM of cisplatin (Sigma-Aldrich Corp. (St. Louis, Mo., USA).
(§1) Antiproliferations of compound 2-4 were determined by an improved MTT assay. The CAR cells were individually plated at a density of 2×10^4 cells/well onto 96-well plates and treated with Dimethyl sulfoxide (DMSO) alone (0.5% (v/v) in media served as a vehicle control) and various concentrations (0, 25, 50, 75 and 100 μM) of compound 2-4 for 24 and 48 hours. Following the above treatments, the supernatant was discarded before a 100 μL solution of MTT (500 μg/ml) was added to each well for 4 hours at 37 °C. After incubation, the medium was replaced by the addition of 200 μL DMSO to solubilize the violet formazan crystal produced from MTT. The absorbance of the dissolved formazan grained within the cells was measured at 570 nm by a microplate reader to calculate viability (data shown as % of control).
(§2) Please refer to Table 1. Hep3B cells and CAR cells were treated by different concentrations of the compounds of the invention for 48 and 72 hours, and the antiprolifieration effect of such compounds was evaluated using MTT assay. Data are presented as IC50 (μM), the concentration of 50% proliferation-inhibitory effect.
MTT assay was utilized and CAR cells were treated with compound 2-4 in different concentration for 24, 48 and 72 hours. […] The IC50 after 72 hours of treatment was 50 μM.
A general note: Tetrazolium assays rely on reduction of a dye to a coloured formazan, in cell work by metabolically active cells.

Data set [3] deals with Hep3B cells. Nature of the data set: MTT assay, antiproliferation on Hep3B cells. The class given is cell-based. Conditions: for IC50: Homo sapiens, Hep3B cells, MTT; for anticancer activity compared with resveratrol and pterostilbene: Hep 3B and CAR cells, Table 1. How it is done:
as §1, §2
The anti-proliferative ability of compound 2-4 in hepatocellular carcinoma was evaluated in Hep3B cells using MTT assay. Hep3B cells were treated with various concentrations of compound 2-4 for 48 and 72 hours.

The conditions of data set [4]: dose up to 3.0 g/kg/day; cited from earlier work.
Setting [5] is: 48 hours, read-out: CAR (IC50 (μM)) 48 hours.
[6] abbreviates: 72 hours, read-out: CAR (IC50 (μM)) 72 hours.
Setting [7] is: 48 hours, read-out: Hep 3B (IC50 (μM)) 48 hours.
The mark [8] stands for this setting: 72 hours, read-out: Hep 3B (IC50 (μM)) 72 hours.

Broadly, the solubility is the dissolved amount per volume that the medium holds. Broadly, the IC50 is the concentration that gives 50% inhibition.

≈ marks a conversion by molar mass, not a printed value. Read-outs that look alike come from different tables or passages of the source. Bounds are passed on as bounds.

As for `CC(CO)(CO)C(=O)Oc1ccc(/C=C/c2cc(O)cc(O)c2)cc1` [Compound 3-5], in data set [1], the solubility was 52.9 µg/mL (≈ 154 µM). Besides, the IC50 in data set [2] (setting [5]) amounted to 169 µM; in data set [2] (setting [6]), 133 µM; in data set [3] (setting [7]), 144 µM; in data set [3] (setting [8]) it was 47.8 µM.
For the molecule `CC(CO)(CO)C(=O)Oc1ccc(/C=C/c2cc(O)cc(OC(=O)C(C)(CO)CO)c2)cc1` [Compound 3-6, 3,4′-[2,2-Bis(hydroxymethyl)propanoxy]-resveratrol], in data set [1], the solubility worked out at 136 µg/mL (≈ 295 µM). The IC50 in data set [2] (setting [5]) amounted to 105 µM; in data set [2] (setting [6]) it was 113 µM; in data set [3] (setting [7]), 54.2 µM; in data set [3] (setting [8]) it was 36.8 µM. Moreover, in data set [3], the “anticancer activity compared with resveratrol and pterostilbene” value was “more potent anticancer activity than resveratrol and pterostilbene”.
Consider `CC(CO)(CO)C(=O)Oc1ccc(/C=C/c2cc(OC(=O)C(C)(CO)CO)cc(OC(=O)C(C)(CO)CO)c2)cc1` [Compound 4-3, 3,5,4′-[2,2-Bis(hydroxymethyl)propanoxy]-resveratrol], for which, in data set [1], the solubility was 372 µg/mL (≈ 646 µM). Also, the concentration for half-maximal inhibition (IC50) in data set [2] (setting [5]) amounted to 149 µM; in data set [2] (setting [6]), 124 µM; in data set [3] (setting [7]), 151 µM; in data set [3] (setting [8]), 95 µM.
In the same order, the values of `CC(CO)(CO)C(=O)Oc1cc(O)cc(/C=C/c2ccc(O)cc2)c1` [Compound 5-3] are 410 µg/mL (≈ 1190 µM), 54.9 µM, 113 µM, 83.5 µM and 68.9 µM.
Regarding `CC(CO)(CO)C(=O)Oc1cc(/C=C/c2ccc(O)cc2)cc(OC(=O)C(C)(CO)CO)c1` [Compound 6-3, 3,5-[2,2-Bis(hydroxymethyl)propanoxy]-resveratrol], in data set [1], the solubility is 455 µg/mL (≈ 988 µM). The IC50 was 91.4 µM in data set [2] (setting [5]), 77 µM in data set [2] (setting [6]), 137 µM in data set [3] (setting [7]) and 55.3 µM in data set [3] (setting [8]).
In the case of `COc1ccc(/C=C/c2cc(OC)cc(OC(=O)C(C)(CO)CO)c2)cc1` [Compound 7-3, 3,4′methyl-5-[2,2-Bis(hydroxymethyl)propanoxy]-resveratrol], the solubility in data set [1] was 53.4 µg/mL (≈ 143 µM). Also, the concentration for half-maximal inhibition (IC50) in data set [2] (setting [5]) turned out to be 64.2 µM; in data set [2] (setting [6]), 67.3 µM; in data set [3] (setting [7]), 70.8 µM; in data set [3] (setting [8]), 48.7 µM. In addition, the “anticancer activity compared with resveratrol and pterostilbene” value in data set [3] is “more potent anticancer activity than resveratrol and pterostilbene”.
Regarding `COc1cc(/C=C/c2ccc(OC(=O)C(C)(CO)CO)cc2)cc(OC(=O)C(C)(CO)CO)c1` [Compound 8-3, 3-methyl-5,4′-[2,2-Bis(hydroxymethyl)propanoxy]-resveratrol], the solubility in data set [1] is greater than 1000 µg/mL. The concentration for half-maximal inhibition (IC50) in data set [2] (setting [5]) came to 56.5 µM; in data set [2] (setting [6]), 59.8 µM; in data set [3] (setting [7]), 106 µM; in data set [3] (setting [8]) it was 66.5 µM.
In the same order, the values of `CC(=O)Oc1cc(/C=C/c2ccc(OC(=O)C(C)(CO)CO)cc2)cc(OC(C)=O)c1` [Compound 9-4, 3,5-acetyl-4′-[2,2-Bis(hydroxymethyl)propanoxy]-resveratrol] are 306 µg/mL (≈ 715 µM), 103 µM, 116 µM, 148 µM and 62 µM.
On to `CC(=O)Oc1cc(/C=C/c2ccc(OC(=O)C(C)(CO)CO)cc2)cc(OC(=O)C(C)(CO)CO)c1` [Compound 10-4, 3-acetyl-5,4′-[2,2-Bis(hydroxymethyl)propanoxy]-resveratrol], for which the solubility in data set [1] is greater than 1000 µg/mL. Also, the IC50 was 122 µM in data set [2] (setting [5]), 119 µM in data set [2] (setting [6]), greater than 200 µM in data set [3] (setting [7]) and greater than 200 µM in data set [3] (setting [8]).
With `COc1cc(O)cc(/C=C/c2ccc(OC(=O)C(C)(CO)CO)cc2)c1` [Compound 11-3, 3-methyl-4′-[2,2-Bis(hydroxymethyl)propanoxy]-resveratrol], the solubility in data set [1] came out at 35.8 µg/mL (≈ 99.9 µM). The IC50 in data set [2] (setting [5]) was 67.3 µM; in data set [2] (setting [6]) it was 64 µM; in data set [3] (setting [7]), 88.9 µM; in data set [3] (setting [8]), 33.2 µM. Besides, in data set [3], the “anticancer activity compared with resveratrol and pterostilbene” value is “more potent anticancer activity than resveratrol and pterostilbene”.
Turning to `COc1cc(/C=C/c2ccc(OC(=O)C(C)(CO)CO)cc2)cc(OC(C)=O)c1` [Compound 12-3, 5-acetyl-3-methyl-4′-[2,2-Bis(hydroxymethyl)propanoxy]-resveratrol], the solubility in data set [1] came out at 81.9 µg/mL (≈ 205 µM). For the same molecule, the IC50 in data set [2] (setting [5]) turned out to be 52 µM; in data set [2] (setting [6]), 50.3 µM; in data set [3] (setting [7]) it was 85.2 µM; in data set [3] (setting [8]), 36.8 µM. For the same molecule, the “anticancer activity compared with resveratrol and pterostilbene” value in data set [3] is “more potent anticancer activity than resveratrol and pterostilbene”.
As to `COc1ccc(/C=C/c2cc(OC(=O)C(C)(CO)CO)cc(OC(=O)C(C)(CO)CO)c2)cc1` [Compound 13-3, 3,5-[2,2-Bis(hydroxymethyl)propanoxy]-4′-methyl-resveratrol], the solubility in data set [1] worked out at 337 µg/mL (≈ 710 µM). For the same molecule, the IC50 stood at 73.9 µM in data set [2] (setting [5]), 70.8 µM in data set [2] (setting [6]), 53.4 µM in data set [3] (setting [7]) and 39.1 µM in data set [3] (setting [8]). In addition, the “anticancer activity compared with resveratrol and pterostilbene” value in data set [3] is “more potent anticancer activity than resveratrol and pterostilbene”.
`COc1cc(/C=C/c2ccc(OC(=O)C3OC(C)(C)OC3C3COC(C)(C)O3)cc2)cc(OC)c1` [Compound 14-5, Pterostilbene D-Ribonic Acid Diacetonide]: in data set [1], the solubility is less than 10 µg/mL. For the same molecule, the IC50 in data set [2] (setting [5]) is greater than 200 µM; in data set [2] (setting [6]) it was greater than 200 µM; in data set [3] (setting [7]) it was 94.7 µM; in data set [3] (setting [8]) it was 59.5 µM.
On to `COc1cc(/C=C/c2ccc(O)cc2)cc(OC)c1` [Pterostilbene, reference compound], for which, in data set [1], the solubility came to 48 µg/mL (≈ 187 µM). Also, in data set [4], the “28 days subchronic toxicity” value was “no significant adverse biochemical parameters and toxic effects were noted”. For the same molecule, the IC50 amounted to 100 µM in data set [2] (setting [5]), 98.3 µM in data set [2] (setting [6]), 75.3 µM in data set [3] (setting [7]) and 48.9 µM in data set [3] (setting [8]).
As to `Oc1ccc(/C=C/c2cc(O)cc(O)c2)cc1` [Resveratrol, 3,5,4′-trihydroxy-trans-stilbene, reference compound], the solubility in data set [1] worked out at 107 µg/mL (≈ 470 µM). Further, the IC50 came out at 153 µM in data set [2] (setting [5]), 88.3 µM in data set [2] (setting [6]), 96.4 µM in data set [3] (setting [7]) and 51.6 µM in data set [3] (setting [8]).
